# Measured values: US10369158B2, “Pharmaceutical packaging for estriol therapy” (The Regents of the University of California, priority 2014, dated 2019)
# Experiments:
# Type in all cases: in vivo, human
# [1] = test system: multiple sclerosis; test: Expanded Disability Status Scale (EDSS)
# From the text: (§1) Patients also underwent mammograms before and after the study.
# The Expanded Disability Status Scale (EDSS) is a standard composite disability score used in MS trials. Higher scores indicate worse disability. This composite covers a variety of disabilities (including ambulation, vision, cognition, coordination, etc.), but scoring is not linear, and the composite score is understood to be principally an indicator of the level of disability in ambulation.
# [2] = test system: multiple sclerosis; test: Paced Auditory Serial Addition Test (PASAT) cognitive disability assessment; settings: month 12 to month 24
# From the text: as §1
# Next it was shown that the improvement in PASAT cognitive test scores was sustained when subjects were followed for the entire 24 month period, p=0.02 (FIG. 3).
# [3] = Safety and tolerability in randomized, double-blind, placebo-controlled clinical trial (gynecological outcomes, mammograms)
# From the text: as §1
# Baseline characteristics were similar in both patient groups.
# [4] = test system: multiple sclerosis; test: Timed 25-foot walk test; settings: between-group difference p=0.02
# From the text: as §1
# Another clinical disability measure with treatment effects was the timed 25-foot walk test. This test measures how many seconds it takes to walk 25 feet, with higher scores indicating worse disability. […] This beneficial effect of estriol treatment on 25 foot walking times is consistent with the beneficial effect of estriol treatment on EDSS scores since the latter is weighted toward being an indicator of ambulation.
# [5] = test system: multiple sclerosis; test: Brain MRI gadolinium enhancing lesions; settings: at month 12 compared to month 0 baseline, p=0.14
# From the text: as §1
# Brain MRI is used extensively in MS as a surrogate marker for clinical effects. Brain white matter gadolinium enhancing lesions are a biomarker for relapses.
# [6] = 24-month treatment, Copaxone with estriol or placebo
substance,measurement,setting,value
glatiramer acetate [Copaxone® plus placebo],Change in EDSS scores,[1]; 24 months (FIG. 4),no change
same,"EDSS scores over 24 months, slope","[1]; FIG. 4, p=0.06 estriol group, p=0.90 placebo group",−0.01
same,PASAT scores after 12 months to end of study,[2],began to show improved PASAT scores
same,Abnormal proliferation in uterine endometrial biopsies,[3]; [6],no
same,Breast - Fibrocystic breast disease on clinical exam,[3]; [6],4 subjects
same,Uterine endometrial biopsies (exams),[3]; [6],10 exams
same,Uterine endometrial thickness > 8 mm on ultrasound (subjects),[3]; [6],27 subjects
same,Mammograms,[3]; before and after the study,No breast
same,Uterine fibroids on ultrasound,"[3]; women with MS, 24-month treatment, Copaxone 20 mg/day with oral estriol 8 mg/day or placebo, norethindrone 0.7 mg/day for 14 days every three months",8 subjects
same,Change of walk time in timed 25-foot walk test,[4],significantly increased
same,Reduction in number of subjects with brain MRI scans positive for enhancing lesions,[5],22%
